Measured values as given in the kinase profiling compilation of Christmann-Franck et al. (2016).

Assays:
Assay in all cases: radiometric filter-binding kinase assay, Kinaseprofiler
[1] = test system: DDR2 (human), Q16832 [S642A]; settings: ATP 200 µM
[2] = test system: EPHB2 (human), P29323 [A848S/K918E]; settings: ATP 10 µM
[3] = test system: MAPK9 (human), P45984 [S51N]; settings: ATP 45 µM
MTOR FKBP1A (human) = MTOR FKBP1A (human) (UniProt P42345+P62942); settings: ATP 45 µM
CDK3 CCNE1 (human) = CDK3 CCNE1 (human) (UniProt Q00526+P24864); settings: ATP 200 µM
CDK2 CCNA2 (human) = CDK2 CCNA2 (human) (UniProt P24941+P20248); settings: ATP 45 µM
CDK7 CCNH MNAT1 (human) = CDK7 CCNH MNAT1 (human) (UniProt P50613+P51948+P51946); settings: compound 10.0 µM; ATP 90 µM
[4] = target: PRKAA2 PRKAB1 PRKAG1 (human) (UniProt P54619+P54646+Q9Y478); settings: ATP 45 µM
CDK2 CCNE1 (human) = CDK2 CCNE1 (human) (UniProt P24941+P24864); settings: ATP 120 µM
Sequence of CDK2 CCNE1 (human) (P24864 whole entry, looked up, other chains not shown): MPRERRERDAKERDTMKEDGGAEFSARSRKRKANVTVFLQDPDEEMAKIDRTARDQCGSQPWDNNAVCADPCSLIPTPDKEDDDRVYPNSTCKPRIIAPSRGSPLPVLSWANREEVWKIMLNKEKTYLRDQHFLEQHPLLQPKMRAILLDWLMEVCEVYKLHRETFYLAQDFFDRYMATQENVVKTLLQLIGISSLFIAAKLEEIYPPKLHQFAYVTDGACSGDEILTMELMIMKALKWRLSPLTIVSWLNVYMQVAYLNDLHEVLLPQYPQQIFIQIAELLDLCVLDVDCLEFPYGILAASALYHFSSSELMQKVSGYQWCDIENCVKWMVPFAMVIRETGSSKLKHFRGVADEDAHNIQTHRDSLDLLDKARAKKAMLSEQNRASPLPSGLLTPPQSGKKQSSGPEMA

Sequence of DDR2 (human), Q16832 [S642A] (Q16832 whole entry, looked up, stated change not applied): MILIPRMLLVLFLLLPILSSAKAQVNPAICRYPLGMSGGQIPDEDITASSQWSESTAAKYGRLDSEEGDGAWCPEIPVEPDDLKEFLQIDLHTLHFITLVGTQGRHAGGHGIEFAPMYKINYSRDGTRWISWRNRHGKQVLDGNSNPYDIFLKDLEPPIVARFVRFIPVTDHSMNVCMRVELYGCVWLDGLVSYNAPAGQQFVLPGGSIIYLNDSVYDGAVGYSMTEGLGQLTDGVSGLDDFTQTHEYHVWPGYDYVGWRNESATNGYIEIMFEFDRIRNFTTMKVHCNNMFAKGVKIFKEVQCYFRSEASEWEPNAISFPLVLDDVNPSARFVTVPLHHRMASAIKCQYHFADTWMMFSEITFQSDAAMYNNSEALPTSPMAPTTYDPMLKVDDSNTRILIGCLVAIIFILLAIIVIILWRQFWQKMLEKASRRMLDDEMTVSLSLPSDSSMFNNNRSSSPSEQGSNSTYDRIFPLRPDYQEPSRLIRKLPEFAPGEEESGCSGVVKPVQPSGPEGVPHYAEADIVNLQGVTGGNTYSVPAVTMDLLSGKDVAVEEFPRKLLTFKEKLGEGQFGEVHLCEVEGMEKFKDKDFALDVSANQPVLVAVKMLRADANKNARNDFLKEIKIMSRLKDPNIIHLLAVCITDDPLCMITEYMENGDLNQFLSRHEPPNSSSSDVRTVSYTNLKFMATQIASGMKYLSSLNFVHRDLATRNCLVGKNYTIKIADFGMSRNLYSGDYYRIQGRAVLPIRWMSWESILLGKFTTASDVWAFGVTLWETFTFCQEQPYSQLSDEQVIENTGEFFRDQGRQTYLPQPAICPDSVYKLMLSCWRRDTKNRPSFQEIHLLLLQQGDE
Sequence of CDK3 CCNE1 (human) (P24864 whole entry, looked up): as the sequence (P24864 whole entry, looked up, other chains not shown) above
Sequence of CDK3 CCNE1 (human) (Q00526 whole entry, looked up): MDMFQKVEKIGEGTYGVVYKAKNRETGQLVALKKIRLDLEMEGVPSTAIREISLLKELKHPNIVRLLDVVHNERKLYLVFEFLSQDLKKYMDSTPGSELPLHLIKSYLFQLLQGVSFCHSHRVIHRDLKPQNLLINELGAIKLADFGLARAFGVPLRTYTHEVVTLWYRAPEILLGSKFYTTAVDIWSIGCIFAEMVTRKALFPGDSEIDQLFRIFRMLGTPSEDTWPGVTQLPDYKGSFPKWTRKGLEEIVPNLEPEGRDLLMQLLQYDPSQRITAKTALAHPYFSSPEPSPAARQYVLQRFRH
Sequence of MTOR FKBP1A (human) (P62942 whole entry, looked up, other chains not shown): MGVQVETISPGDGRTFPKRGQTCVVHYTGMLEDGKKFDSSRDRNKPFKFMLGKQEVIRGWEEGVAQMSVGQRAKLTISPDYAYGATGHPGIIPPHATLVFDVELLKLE
Sequence of CDK2 CCNA2 (human) (P20248 whole entry, looked up, other chains not shown): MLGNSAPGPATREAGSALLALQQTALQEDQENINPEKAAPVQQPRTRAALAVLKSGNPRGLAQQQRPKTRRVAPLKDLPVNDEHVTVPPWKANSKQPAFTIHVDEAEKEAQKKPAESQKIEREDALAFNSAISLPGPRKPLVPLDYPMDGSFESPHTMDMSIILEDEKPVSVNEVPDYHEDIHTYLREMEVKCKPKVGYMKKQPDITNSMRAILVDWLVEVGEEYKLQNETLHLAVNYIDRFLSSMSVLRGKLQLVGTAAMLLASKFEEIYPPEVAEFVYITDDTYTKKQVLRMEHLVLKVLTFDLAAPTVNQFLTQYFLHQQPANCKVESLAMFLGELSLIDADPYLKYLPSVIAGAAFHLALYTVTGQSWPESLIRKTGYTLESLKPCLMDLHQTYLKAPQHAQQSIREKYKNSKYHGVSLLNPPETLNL
Sequence of PRKAA2 PRKAB1 PRKAG1 (human) (P54619 whole entry, looked up): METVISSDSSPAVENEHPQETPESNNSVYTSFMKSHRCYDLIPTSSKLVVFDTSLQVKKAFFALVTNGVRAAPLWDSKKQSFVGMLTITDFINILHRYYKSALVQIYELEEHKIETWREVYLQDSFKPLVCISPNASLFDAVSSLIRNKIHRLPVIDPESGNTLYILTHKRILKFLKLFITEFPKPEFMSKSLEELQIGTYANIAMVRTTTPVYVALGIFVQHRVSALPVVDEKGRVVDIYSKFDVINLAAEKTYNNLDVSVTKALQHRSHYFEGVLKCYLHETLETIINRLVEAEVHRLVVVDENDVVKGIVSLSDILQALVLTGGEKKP
Sequence of PRKAA2 PRKAB1 PRKAG1 (human) (P54646 whole entry, looked up): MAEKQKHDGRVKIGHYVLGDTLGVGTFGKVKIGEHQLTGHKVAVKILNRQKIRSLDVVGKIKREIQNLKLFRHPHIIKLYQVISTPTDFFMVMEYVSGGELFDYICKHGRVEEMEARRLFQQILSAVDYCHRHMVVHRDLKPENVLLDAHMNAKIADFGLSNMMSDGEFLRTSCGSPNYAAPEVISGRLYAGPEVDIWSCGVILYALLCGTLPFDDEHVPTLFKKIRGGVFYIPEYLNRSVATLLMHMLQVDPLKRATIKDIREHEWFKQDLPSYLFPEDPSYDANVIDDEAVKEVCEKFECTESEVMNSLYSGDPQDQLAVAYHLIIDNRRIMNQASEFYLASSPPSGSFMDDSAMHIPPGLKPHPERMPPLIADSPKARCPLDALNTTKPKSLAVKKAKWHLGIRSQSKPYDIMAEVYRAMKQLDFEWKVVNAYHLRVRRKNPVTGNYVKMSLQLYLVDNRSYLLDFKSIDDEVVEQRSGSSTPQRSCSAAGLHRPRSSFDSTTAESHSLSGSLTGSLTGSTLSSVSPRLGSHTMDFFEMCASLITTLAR
Sequence of PRKAA2 PRKAB1 PRKAG1 (human) (Q9Y478 whole entry, looked up): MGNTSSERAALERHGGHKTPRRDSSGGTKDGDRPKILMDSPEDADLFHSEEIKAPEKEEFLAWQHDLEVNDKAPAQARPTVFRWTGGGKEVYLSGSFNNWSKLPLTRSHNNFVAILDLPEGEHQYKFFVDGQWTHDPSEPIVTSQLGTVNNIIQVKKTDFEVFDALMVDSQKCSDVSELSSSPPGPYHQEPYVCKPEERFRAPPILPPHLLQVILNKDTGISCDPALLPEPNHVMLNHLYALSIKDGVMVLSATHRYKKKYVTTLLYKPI
Sequence of CDK7 CCNH MNAT1 (human) (P50613 whole entry, looked up): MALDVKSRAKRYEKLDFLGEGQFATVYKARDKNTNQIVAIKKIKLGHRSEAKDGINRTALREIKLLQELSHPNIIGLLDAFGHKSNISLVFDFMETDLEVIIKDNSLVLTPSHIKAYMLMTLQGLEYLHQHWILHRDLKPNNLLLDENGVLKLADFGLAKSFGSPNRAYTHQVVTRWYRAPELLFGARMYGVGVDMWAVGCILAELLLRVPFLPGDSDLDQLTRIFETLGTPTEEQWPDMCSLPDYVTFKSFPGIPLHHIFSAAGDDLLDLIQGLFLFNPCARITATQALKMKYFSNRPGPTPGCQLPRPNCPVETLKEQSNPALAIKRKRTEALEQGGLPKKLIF
Sequence of CDK7 CCNH MNAT1 (human) (P51946 whole entry, looked up): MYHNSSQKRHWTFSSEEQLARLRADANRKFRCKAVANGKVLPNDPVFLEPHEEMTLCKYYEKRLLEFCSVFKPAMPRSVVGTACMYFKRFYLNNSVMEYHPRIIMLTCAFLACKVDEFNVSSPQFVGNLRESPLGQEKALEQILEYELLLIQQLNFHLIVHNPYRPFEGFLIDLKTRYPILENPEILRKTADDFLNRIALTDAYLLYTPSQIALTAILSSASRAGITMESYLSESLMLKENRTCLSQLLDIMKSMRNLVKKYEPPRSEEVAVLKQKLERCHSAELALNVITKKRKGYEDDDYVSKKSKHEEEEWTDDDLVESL
Sequence of CDK7 CCNH MNAT1 (human) (P51948 whole entry, looked up): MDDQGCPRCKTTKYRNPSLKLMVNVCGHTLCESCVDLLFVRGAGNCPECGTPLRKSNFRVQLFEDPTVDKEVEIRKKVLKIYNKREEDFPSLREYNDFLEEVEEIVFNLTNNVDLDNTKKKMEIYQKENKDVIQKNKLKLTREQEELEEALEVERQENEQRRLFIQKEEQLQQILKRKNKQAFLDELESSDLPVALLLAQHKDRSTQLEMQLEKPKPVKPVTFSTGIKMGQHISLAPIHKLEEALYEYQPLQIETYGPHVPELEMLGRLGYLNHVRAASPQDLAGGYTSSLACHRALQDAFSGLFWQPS

residual activity ([1]; compound 1.0 µM)	residual activity ([1]; compound 10.0 µM)	residual activity ([2]; compound 1.0 µM)	residual activity ([2]; compound 10.0 µM)	residual activity ([3]; compound 1.0 µM)	residual activity ([3]; compound 10.0 µM)	SMILES	also measured
93%	92%	101%	95%	26%	-6%	O=C1c2ccccc2-c2n[nH]c3cccc1c23	
94%	87%	91%	13%	55%	17%	O=C1Nc2ccccc2/C1=C1\Nc2ccccc2\C1=N/O	
	35%					O=C(Nc1cccc(Nc2nccc(Nc3cccc(C(F)(F)F)c3)n2)c1)C1CC1	
						CO[C@H]1[C@@H](OC)C[C@H](C)[C@@H](OC)C2=CC(=O)C=C(NC(=O)/C(C)=C\C=C/[C@H](OC)[C@@H](OC(N)=O)/C(C)=C\[C@@H]1C)C2=O	residual activity (MTOR FKBP1A (human); compound 1.0 µM): 77%; residual activity (MTOR FKBP1A (human); compound 10.0 µM): 89%; residual activity (CDK3 CCNE1 (human); compound 1.0 µM): 100%; residual activity (CDK3 CCNE1 (human); compound 10.0 µM): 87%; residual activity (CDK2 CCNA2 (human); compound 1.0 µM): 138%; residual activity (CDK2 CCNA2 (human); compound 10.0 µM): 83%; residual activity (CDK7 CCNH MNAT1 (human)): 101%; residual activity ([4]; compound 1.0 µM): 92%; residual activity ([4]; compound 10.0 µM): 78%; residual activity (CDK2 CCNE1 (human); compound 1.0 µM): 104%; residual activity (CDK2 CCNE1 (human); compound 10.0 µM): 91%

SMILES	residual activity ([1]; compound 1.0 µM)	residual activity ([1]; compound 10.0 µM)	residual activity ([2]; compound 1.0 µM)	residual activity ([2]; compound 10.0 µM)	residual activity ([3]; compound 1.0 µM)	residual activity ([3]; compound 10.0 µM)	also measured
CN[C@@H]1C[C@H]2O[C@@](C)([C@@H]1OC)n1c3ccccc3c3c4c(c5c6ccccc6n2c5c31)C(=O)NC4					52%		
COC(=O)[C@]1(O)C[C@@H]2O[C@@]1(C)n1c3ccccc3c3c4c(c5c6ccccc6n2c5c31)C(=O)NC4						-11%	
